Test results reported in article PMC6434189, “Peperomin E and its orally bioavailable analog induce oxidative stress-mediated apoptosis of acute myeloid leukemia progenitor cells by targeting thioredoxin reductase” (Redox Biology, 2019).
Where two headings read alike, the source gives them in different places.

Columns and labels:
primary CD34+ AML cells = test: CCK-8 cell viability assay on primary CD34+ AML cells; format: cell-based, human; conditions: for viability at 6 µM: Homo sapiens, 48 h, CCK-8, read-out: cells viable (average)
Protocol: The mononuclear cells were further enriched for CD34 positive cells using the MACS CD34 MicroBead kit following the manufacturer's protocol. Enriched CD34 cell-purity was measured by flow cytometry-based quantification of cells stained using an anti-CD34-FITC antigen. Isolated CD34^+ cells were pre-incubated in the IMDM-based serum-free media for 1 h before the addition of drugs. PepE was dissolved in DMSO to make a 100 mM stock solution and stored in aliquots at – 20 °C. The 100 mM stock solution was diluted with DMSO to 10 mM and then diluted with PBS to 1 mM before treating the cells at the indicated concentrations. DMAPE and Ara-C were diluted in PBS to 1 mM concentration before use.
Unless otherwise mentioned, 2 × 10^4 cells were seeded at 96-well plates (Corning, New York, USA) in the IMDM-based serum-free media for 1 h. Then, the cells were incubated with different concentrations of PepE and DMAPE at 37 °C in a 5% CO2 incubator for 48 h. At the end of the treatment, 10 μL CCK-8 solution was added to each well and incubated for an additional 2 h at 37 °C, and the absorbance at 450 nm was measured with a microplate reader (Thermo Scientific, Multiskan GO, Finland). Inhibition ratio (%) was calculated as [(absorbance of control − absorbance of the test sample)/absorbance of control] x 100%.

[1] = Pharmacokinetic study of DMAPE in rats; format: in vivo, Sprague–Dawley rats; conditions: for MRT last: read-out: MRT 0-t; for MRT inf: read-out: MRT 0-∞
Description: The UFLC-MS/MS system consisted of a Prominence™ UFLC system (Shimadzu, Kyoto, Japan) coupled with a QTRAP™ 5500 MS/MS system (Applied Biosystems/MDS SCIEX, Foster City, CA, USA) and controlled by the Analyst 1.5.2 software. MS‐grade methanol and acetonitrile were purchased from Merck (Darmstadt, Germany). Ultra‐pure water was generated using a MilliQ™ direct water purification system (Merck–Millipore, Billerica, MA, USA). The mass spectra and chromatographic conditions, method validations, standard and sample preparation for simultaneous determination of DMAPE and its parent drug PepE in rat plasma are provided in the Additional method in Supplementary Materials.
Male Sprague–Dawley rats weighing 200 ± 20 g were supplied by the Qinglongshan Experimental Animal Breeding Company (Nanjing, China). The experiment protocol was approved by the Animal Ethics Committee of Nanjing University of Chinese Medicine (Nanjing, China). The rats were housed under controlled environmental conditions (temperature 25 ± 2 °C, relative humidity 50 ± 10%) with free access to standard laboratory food and water. Before drug administration, the rats were randomly divided into two groups (eight rats per group) and fasted for 12 h with access to water. DMAPE phosphate salt aqueous solution was i. g. (50 mg/kg) or i. v. (50 mg/kg) administrated. Blood samples were collected from the tail vein into heparinized Eppendorf tubes using lithium heparin‐containing microvettes. The plasma was obtained by centrifugation of the blood at 5000 rpm for 10 min and then frozen at −20 °C until analysis. Pharmacokinetic parameters were calculated using the DAS 2.1.1 software (Pharmacological Society of China, China) using non-compartmental analysis.

KG-1a CD34+ cells [2] = test: Annexin V-FITC/PI apoptosis assay; format: cell-based, human; conditions: 6 μM; for cell apoptosis (early + late): 12 h; for apoptotic population (early + late): 24 h
Description: The cells were harvested and washed twice with PBS. The apoptotic cells, necrotic cells, and live cells were identified by PI and Annexin V-FITC staining assay following the manufacturer's instructions. Data were obtained and analyzed using a BD Accuri™ C6 flow cytometer (BD Biosciences, San Jose, CA, USA) with CellQuest software (BD Biosciences).

KG-1a CD34+ cells [3] = test: Intracellular ROS measurement (DCFH-DA / DHE); format: cell-based, human; conditions: 6 μM; blocked by NAC pretreatment
Protocol: KG-1a CD34^+ cells and other sorted primary APCs (5 × 10^5) were plated in FBS-free IMDM medium in 12-well plates (Corning) and were treated with 5 μM of Ara-C and 6 μM PepE or DMAPE in the presence or absence of 5 mM NAC for 2 h. The ROS indicator DCFH-DA (10 μM) or DHE (10 μM) in fresh FBS-free medium was added to each well, and further incubated in the dark for 30 min at 37 °C. The cells were visualized and photographed under an Olympus inverted fluorescence microscope IX-73 (Tokyo, Japan) with Metamorph software (Molecular Devices, Downingtown, PA, USA).

[4] = tested on: Trx1 in KG-1a CD34+ cells; test: Trx1 redox state assay (PAO-Sepharose pull down); format: cell-based, human; conditions: 5 μM, 24 h
Protocol: The redox state of Trx1 was determined using Liu's method. Phenylarsine oxide (PAO)-Sepharose was prepared by immobilization of PAO on Sepharose 4B according to Liu's report. The reduced form was pulled down on the Sepharose, while the oxidized form remained in the solution. Briefly, the KG-1a CD34^+ cells were treated with 5 μM PepE/DMAPE or vehicle control (DMSO) for 24 h. The cellular proteins were extracted by RIPA buffer and quantified by the Bradford method. The fully oxidized and reduced controls were prepared by incubating the non-treated cell lysate with diamide (2 mM) and TCEP (2 mM) for 1 h at 37 °C, respectively. The cell lysates were then incubated with PAO-sepharose on a rotating shaker for 1 h at room temperature. The supernatant was collected and the PAO-sepharose was washed with Tris-EDTA buffer. Then, the reduced Trx1 was eluted using Tris-EDTA buffer containing DPMS (10 mM). All samples were separated on SDS-PAGE and electrotransferred to PVDF membrane for western blot analyses. The bands were analyzed using Gel-pro 32 software.

[5] = male, Sprague-Dawley, po, rat plasma, DMAPE 50 mg/kg intragastric
[6] = male, Sprague-Dawley, rat, plasma, po, 50 mg/kg, rat plasma, DMAPE 50 mg/kg intragastric
[7] = male, Sprague-Dawley, rat plasma, DMAPE 50 mg/kg intravenous

Compound	viability at 6 µM (primary CD34+ AML cells) [%]	AUC(0-inf) [1, 5] [ng·h/mL]	AUC(0-t) [1, 5] [ng·h/mL]	Cmax [1, 5] [ng/mL]	half-life [1, 5] [h]	MRT last [1, 5] [h]	MRT inf [1, 5] [h]	Tmax [1, 6] [h]	AUC(0-inf) [1, 7] [ng·h/mL]	AUC(0-t) [1, 7] [ng·h/mL]	Cmax [1, 7] [ng/mL]	clearance [1, 7] [mL/min/kg]	half-life [1, 7] [h]	MRT last [1, 7] [h]	MRT inf [1, 7] [h]	cell apoptosis (early + late) (KG-1a CD34+ cells [2]) [%]	apoptotic population (early + late) (KG-1a CD34+ cells [2]) [%]	ROS level by DCFH-DA staining (KG-1a CD34+ cells [3])	oxidized form of Trx [4]	also measured
COc1cc(C(c2cc(OC)c3c(c2)OCO3)[C@@H]2COC(=O)[C@H]2CN(C)CCO)cc2c1OCO2 [DMAPE, (2S,3S)-6-Methyl (hydroxyethyl) amino-2,6-dihydropeperomin E]	28.9	25400 ± 8950	25200 ± 8960	5760 ± 2510	4.26 ± 1.63	4.9 ± 0.42	5.29 ± 0.32	≤ 0.85	30000 ± 7010	29900 ± 7070	21700 ± 3590	29	4.33 ± 1.77	2.61 ± 0.86	2.73 ± 0.85	~55	~90	burst of ROS	significantly increased	bioavailability ([1]; male, Sprague-Dawley, rat, plasma, oral, 50 mg/kg, rat, DMAPE 50 mg/kg intragastric vs intravenous, read-out: Bioavailability, F): 85%; CL ([1]; rat plasma, DMAPE 50 mg/kg intragastric): 35.7 ± 10.2 mL/min/kg
C=C1C(=O)OC[C@H]1C(c1cc(OC)c2c(c1)OCO2)c1cc(OC)c2c(c1)OCO2 [PepE, Peperomin E]	24	10700 ± 2930	10600 ± 2930	2300 ± 270	7.02 ± 1.3	7.32 ± 0.82	7.75 ± 0.74	≤ 0.85	11400 ± 3520	11300 ± 3520	8630 ± 2040	77.5	8.89 ± 4.8	3.91 ± 1.4	4.64 ± 1.88	~65	~85	burst of ROS	significantly increased	concentration range inducing apoptosis of human primary CD34+ AML cells (primary CD34+ AML cells): 4 to 6 µM; Tmax ([1]; male, Sprague-Dawley, rat, plasma, iv, 50 mg/kg, rat plasma, DMAPE 50 mg/kg intravenous): 0.21 ± 0.17 h
